Test results published in publication PMC6905855, “Agonist-specific voltage-dependent gating of lysosomal two-pore Na^+ channels” (eLife, 2019).
Values joined by “and” are separate entries in the source; they are usually repeats but may differ in a detail not shown here. Equal entries are not always repeated.

Columns and labels:
TPC2 I551R = test system: T1, TPC2 I551R; assay: Whole-endolysosome recordings of ITPC2-I551R; format: biochemical, human
T1 construct: expressed in transfected cells

TPC2^N653G = test system: T2, TPC2^N653G; assay: Whole-endolysosome recordings of ITPC2-N653G; format: biochemical, human; details: for PX / PNa, K+: TPC2 N653G, agonist-activated current
T2 construct: expressed in transfected cells

TPC2^LL/AA = test system: T3, TPC2^LL/AA; assay: Inside-out patch recordings of ITPC2; format: biochemical, human; details: for time course of LyNa-VA1.2-induced ITPC2: I/o
T3 construct: expressed in transfected cells; host or cells: HEK293

hTPC1^R540I = test system: T4, hTPC1^R540I; assay: Whole-endolysosome recordings of ITPC1-R540I; format: biochemical, human
T4 construct: expressed in transfected cells; host or cells: Cos1

[1] = test system: non-transfected HEK293 cells; assay: Whole-cell recordings in non-transfected cells; format: cell-based, Homo sapiens
Text: To our surprise, 5 out of the 23 compounds are well characterized as tri-cyclic anti-depressants (TCAs), which are believed to act on neurotransmitter transporters or voltage-gated Na^+ channels ([Cheng and Bahar, 2019]; [Pancrazio et al., 1998]). We therefore characterized the responses of TPC2 channels to TCAs in detail using electrophysiological methods. We first performed whole-cell recordings in HEK293 cells that were transfected with surface-expressed TPC2 mutant channels (TPC2-L^11L^12-AA; abbreviated as TPC2^LL/AA hereafter). No functional difference was noted between wild-type (WT) TPC2 and TPC2^LL/AA channels in terms of channel permeation and gating properties ([Wang et al., 2012]). To facilitate the detection of TPC2-specific currents, we used symmetric Na^+ solutions in the bath (extracellular) and pipette (cytosolic) solutions ([Wang et al., 2012]).
Whole-cell recordings were performed using pipette electrodes with resistance of 3–5 MΩ. […] All bath solutions were applied via a perfusion system that allowed complete solution exchange within a few seconds. Data were collected using an Axopatch 200A patch clamp amplifier, Digidata 1440, and pClamp 10.2 software (Axon Instruments). […] All experiments were conducted at room temperature (21–23°C), and all recordings were analyzed with pClamp 10.2, and Origin 8.0 (OriginLab, Northampton, MA).

[2] = inside out, 200 µM, individual recordings
[3] = inside-out, 200 µM, mean ± S.E.M

CNCCCN1c2ccccc2CCc2ccccc21 [LyNa-VA1.2, Desipramine]
activation of ITPC2-I551R (in words) (TPC2 I551R): failed to affect LyNa-VA1.2 activation
activation of TPC2 N653G (in words) (TPC2^N653G): did not alter the ability of LyNa-VA1.2 to enhance channel activation
PX / PNa, K+ (TPC2^N653G; individual): 0.5576 and 0.6267 and 0.3361 and 0.4961
PX / PNa, K+ (TPC2^N653G; mean): 0.5041
activation of ITPC2 in inside-out patch (in words) (TPC2^LL/AA; 200 µM): evoked
time course of LyNa-VA1.2-induced ITPC2 (TPC2^LL/AA; time 0 s): -0.06927
time course of LyNa-VA1.2-induced ITPC2 (TPC2^LL/AA; time 2 s): -0.0966
time course of LyNa-VA1.2-induced ITPC2 (TPC2^LL/AA; time 4 s): -0.00941
time course of LyNa-VA1.2-induced ITPC2 (TPC2^LL/AA; time 6 s): -8.49E-04
time course of LyNa-VA1.2-induced ITPC2 (TPC2^LL/AA; time 8 s): -0.06407
time course of LyNa-VA1.2-induced ITPC2 (TPC2^LL/AA; time 10 s): -0.08365
time course of LyNa-VA1.2-induced ITPC2 (TPC2^LL/AA; time 12 s): -0.08538
time course of LyNa-VA1.2-induced ITPC2 (TPC2^LL/AA; time 14 s): -0.09864
time course of LyNa-VA1.2-induced ITPC2 (TPC2^LL/AA; time 16 s): -0.09741
time course of LyNa-VA1.2-induced ITPC2 (TPC2^LL/AA; time 18 s): -0.1284
time course of LyNa-VA1.2-induced ITPC2 (TPC2^LL/AA; time 20 s): -0.2599
time course of LyNa-VA1.2-induced ITPC2 (TPC2^LL/AA; time 22 s): -0.3874
time course of LyNa-VA1.2-induced ITPC2 (TPC2^LL/AA; time 24 s): -0.5101
time course of LyNa-VA1.2-induced ITPC2 (TPC2^LL/AA; time 26 s): -0.54
time course of LyNa-VA1.2-induced ITPC2 (TPC2^LL/AA; time 28 s): -0.5044
time course of LyNa-VA1.2-induced ITPC2 (TPC2^LL/AA; time 30 s): -0.6046
time course of LyNa-VA1.2-induced ITPC2 (TPC2^LL/AA; time 32 s): -0.6923
time course of LyNa-VA1.2-induced ITPC2 (TPC2^LL/AA; time 34 s): -0.8892
time course of LyNa-VA1.2-induced ITPC2 (TPC2^LL/AA; time 36 s): -0.754
time course of LyNa-VA1.2-induced ITPC2 (TPC2^LL/AA; time 38 s): -0.8074
time course of LyNa-VA1.2-induced ITPC2 (TPC2^LL/AA; time 40 s): -0.7387
time course of LyNa-VA1.2-induced ITPC2 (TPC2^LL/AA; time 42 s): -0.8794
time course of LyNa-VA1.2-induced ITPC2 (TPC2^LL/AA; time 44 s): -0.9937
time course of LyNa-VA1.2-induced ITPC2 (TPC2^LL/AA; time 46 s): -1
time course of LyNa-VA1.2-induced ITPC2 (TPC2^LL/AA; time 48 s): -0.9555
time course of LyNa-VA1.2-induced ITPC2 (TPC2^LL/AA; time 50 s): -0.9211
time course of LyNa-VA1.2-induced ITPC2 (TPC2^LL/AA; time 52 s): -0.87
Latency of induced ITPC2 (TPC2^LL/AA; [2]): 8 s and 12 s and 14 s
Time constant (τ) of induced ITPC2 (TPC2^LL/AA; [2]): 13.9 s and 16.3 s and 17.9 s and 21.3 s
latency of TPC2 activation (TPC2^LL/AA; [3]): 12 ± 1 s
time constant (τ) of TPC2 activation (TPC2^LL/AA; [3]): 17 ± 2 s

CN(C)CCCN1c2ccccc2CCc2ccc(Cl)cc21 [LyNa-VA1.1, Clomipramine]
effect on ITPC1-R540I (in words) (hTPC1^R540I): dramatic enhancement of inward currents at negative potentials

Nc1nc2ccc(OC(F)(F)F)cc2s1 [LyNA1, Riluzole]
activation of whole-cell currents in non-transfected cells (in words) [1]: not in non-transfected HEK293 cells
